We go through 29 molecules from US20220089592A1, “IMIDAZO[1,2-A]PYRIDINYL DERIVATIVES AS IRAK4 INHIBITORS” (priority 2019, published 2022).

Assay [1] addresses T1, IRAK4 (Homo sapiens, UniProt Q9NWZ3).
T1 sequence (Q9NWZ3 1-460): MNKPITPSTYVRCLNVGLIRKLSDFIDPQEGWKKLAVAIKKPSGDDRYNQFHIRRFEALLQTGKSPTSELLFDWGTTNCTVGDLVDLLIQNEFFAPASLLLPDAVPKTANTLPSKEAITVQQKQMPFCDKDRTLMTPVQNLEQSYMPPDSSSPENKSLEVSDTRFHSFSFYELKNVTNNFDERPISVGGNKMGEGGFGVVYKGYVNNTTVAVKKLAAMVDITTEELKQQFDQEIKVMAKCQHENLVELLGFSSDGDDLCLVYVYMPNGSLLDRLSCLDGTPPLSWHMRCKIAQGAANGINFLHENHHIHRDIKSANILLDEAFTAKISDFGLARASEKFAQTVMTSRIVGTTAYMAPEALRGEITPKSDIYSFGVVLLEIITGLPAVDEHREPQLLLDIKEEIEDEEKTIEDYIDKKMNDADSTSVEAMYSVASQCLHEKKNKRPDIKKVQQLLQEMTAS
Kind of assay: 2-hour 10 μM ATP Biochemical Assay (MesoScale Detection format; IRAK4 phosphorylation of biotin labeled IRAK1 activation loop peptide). The conditions noted are these: IRAK4 MSD BIOCHEMICAL (10 μM ATP) IC50 (μM), 1 nM IRAK4, 2 hours. As for the experimental part: The 2-hour 10 μM ATP Biochemical Assay employs a MesoScale Detection (MSD) format.
The activity is quenched with 11 μl of 70 mM EDTA, pH 8.
To detect the phosphorylated biotinylated peptide substrate, 30 μl of the quenched reaction mixture is added to equivalent wells of a 384 well streptavidin coated MesoScale plate (Meso Scale Discovery #L21SA-1). After a 1 hour incubation of the plate for 1 hour at room temperature with gentle mixing, the plate wells are washed 3 times with 50 mM Tris, pH 7.5, 150 mM NaCl, 0.02% Tween-20.
A 25 μl volume of 1:500 anti-P-Threonine Rabbit polyclonal Antibody plus 1:500 Goat-anti-Rabbit Sulfo Tag Antibody (Meso Scale Discovery R32AB-1) in 50 mM Tris, pH 7.5, 150 mM NaCl, 0.02% Tween-20 plus 2% BSA is then added to each well. After a 1-hour incubation of the plate for 1 hour at room temperature with gentle mixing, the plate wells are washed, 3 times with 50 mM Tris, pH 7.5, 150 mM NaCl, 0.02% Tween-20. A 40 μl volume of 2×MSD Read Buffer (Meso Scale Discovery R92TC-1) is added to each well, and the plate is read immediately in an MSD Plate Reader (Meso Scale Discovery).

The target of assay [2] is T1, IRAK4. Description: 2-hour 1 mM ATP IRAK4 Biochemical assay (as above, but with 100 pM IRAK4 and 1 mM ATP). The conditions noted are these: IRAK4 MSD BIOCHEMICAL (1 mM ATP) IC50 (μM), 100 pM IRAK4, 2 hours. In short, it runs like this: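 Run with 100 pM IRAK4 and 1 mM ATP for 2 hours, quenched with EDTA pH 8. Phosphorylated biotinylated peptide captured on streptavidin MSD plates and detected with anti-phosphothreonine antibody plus Sulfo-Tag secondary by electrochemiluminescence.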

With `CCOc1cc2nc(C3(OCC)CCOCC3)cn2cc1NC(=O)c1cccc(C(F)F)n1` [Example 91, 6-(difluoromethyl)-N-(7-ethoxy-2-(4-ethoxytetrahydro-2H-pyran-4-yl)imidazo[1,2-a]pyridin-6-yl)picolinamide], the half-maximal inhibitory concentration (IC50) on IRAK4 [1] came to 0.001 µM; against IRAK4 [2] it was 0.003 µM. For the molecule `COc1cc2nc(C3CC3)cn2cc1NC(=O)c1cccc(C(F)F)n1` [Example 4, N-(2-cyclopropyl-7-methoxyimidazo[1,2-a]pyridin-6-yl)-6-(difluoromethyl)picolinamide], the concentration for half-maximal inhibition (IC50) against IRAK4 [1] was 0.004 µM; against IRAK4 [2] it was 0.015 µM. The corresponding values for `O=C(Nc1ccc2nc(C3CCOCC3)cn2c1)c1cccc(C(F)F)n1` [Example 356, 6-(difluoromethyl)-N-(2-(tetrahydro-2H-pyran-4-yl)imidazo[1,2-a]pyridin-6-yl)picolinamide] are 0.015 µM and 0.033 µM. For `CCOc1cc2nc(C3(O)CCOCC3)cn2cc1NC(=O)c1cccc(C(F)F)n1` [Example 90, 6-(difluoromethyl)-N-(7-ethoxy-2-(4-hydroxytetrahydro-2H-pyran-4-yl)imidazo[1,2-a]pyridin-6-yl)picolinamide], the values for the IC50 against IRAK4 [1] and at IRAK4 [2] were 0.002 µM and 0.004 µM, respectively. Consider `CCOc1cc2nc(C(C)(C)CO)cn2cc1NC(=O)c1cccc(C(F)F)n1` [Example 17, 6-(difluoromethyl)-N-(7-ethoxy-2-(1-hydroxy-2-methylpropan-2-yl)imidazo[1,2-a]pyridin-6-yl)picolinamide], for which the half-maximal inhibitory concentration (IC50) at IRAK4 [1] was found to be 0.005 µM; at IRAK4 [2], 0.016 µM. On to `CCOc1cc2nc(C(C)(C)C#N)cn2cc1NC(=O)c1csc(C)n1` [Example 241, N-(2-(2-cyanopropan-2-yl)-7-ethoxyimidazo[1,2-a]pyridin-6-yl)-2-methylthiazole-4-carboxamide], for which the figures for the IC50 against IRAK4 [1] and against IRAK4 [2] were 0.01 µM and 0.041 µM, respectively. Regarding `CCOc1cc2nc(CC3CCOC3)cn2cc1NC(=O)c1coc(-c2cnn(C)c2)n1` (stereo not drawn) [Example 22, N-(7-ethoxy-2-((tetrahydrofuran-3-yl)methyl)imidazo[1,2-a]pyridin-6-yl)-2-(1-methyl-1H-pyrazol-4-yl)oxazole-4-carboxamide], the IC50 on IRAK4 [1] worked out at 0.001 µM; against IRAK4 [2], 0.002 µM. In turn, `CCOc1cc2nc(CC)cn2cc1NC(=O)c1ccc2c(c1)COC2` [Example 37, N-(7-ethoxy-2-ethylimidazo[1,2-a]pyridin-6-yl)-1,3-dihydroisobenzofuran-5-carboxamide] displayed an IC50 against IRAK4 [1] of 1.7 µM. Consider `COc1cc(NC(=O)c2cccc(C(F)F)n2)cn2cc(C34CC(C(F)F)(C3)C4)nc12` [Example 512, 6-(difluoromethyl)-N-(2-(3-(difluoromethyl)bicyclo[1.1.1]pentan-1-yl)-8-methoxyimidazo[1,2-a]pyridin-6-yl)picolinamide 2,2,2-trifluoroacetate], for which, at IRAK4 [1], the midpoint of inhibition, the IC50, lay at 0.004 µM. Molecule `CCOc1cc2nc(C(C)(C)C#N)cn2cc1NC(=O)c1cccc(C(F)CF)n1` (stereo not drawn) [Example 245, N-(2-(2-cyanopropan-2-yl)-7-ethoxyimidazo[1,2-a]pyridin-6-yl)-6-(1,2-difluoroethyl)picolinamide] returned an IC50 against IRAK4 [1] of 0.002 µM. On the same count and under the same terms, in the case of `CCOc1cc2nc(CC)cn2cc1NC(=O)c1ccc(F)c(C(F)(F)F)n1` [Example 51, N-(7-ethoxy-2-ethylimidazo[1,2-a]pyridin-6-yl)-5-fluoro-6-(trifluoromethyl)picolinamide] it was 0.21 µM; in that of `Cc1cc(NC(=O)c2cccc(C(F)F)n2)cn2cc(C3CCOCC3)nc12` [Example 410, 6-(difluoromethyl)-N-(8-methyl-2-(tetrahydro-2H-pyran-4-yl)imidazo[1,2-a]pyridin-6-yl)picolinamide 2,2,2-trifluoroacetate], 0.011 µM. Turning to `CCOc1cc2nc(C3CCOCC3)cn2cc1NC(=O)c1cccc(OCC(F)(F)F)n1` [Example 363, N-(7-ethoxy-2-(tetrahydro-2H-pyran-4-yl)imidazo[1,2-a]pyridin-6-yl)-6-(2,2,2-trifluoroethoxy)picolinamide], at IRAK4 [1], the concentration for half-maximal inhibition (IC50) is 0.029 µM. `CCOc1cc2nc(C(=O)N3CCOCC3)cn2cc1NC(=O)c1cccc(C(F)F)n1` [Example 126, 6-(difluoromethyl)-N-(7-ethoxy-2-(morpholine-4-carbonyl)imidazo[1,2-a]pyridin-6-yl)picolinamide] had an IC50 against IRAK4 [1] of 0.35 µM. This IC50 is about 12-fold higher than that of the molecule before. Regarding `O=C(Nc1ccc2nc(C3CC3)cn2c1)c1cccc(C(F)F)n1` [Example 30, N-(2-cyclopropylimidazo[1,2-a]pyridin-6-yl)-6-(difluoromethyl)picolinamide], the IC50 at IRAK4 [1] worked out at 0.048 µM. Against the preceding molecule, the IC50 is about 7.3-fold lower. `CCOc1cc2nc(CC)cn2cc1NC(=O)c1cc(C)c(C)cn1` [Example 45, N-(7-ethoxy-2-ethylimidazo[1,2-a]pyridin-6-yl)-4,5-dimethylpicolinamide] gave a half-maximal inhibitory concentration (IC50) on IRAK4 [1] of 2.3 µM. On IRAK4 [1], `CCOc1cc2nc(CC)cn2cc1NC(=O)c1ccc(F)cc1F` [Example 40, N-(7-ethoxy-2-ethylimidazo[1,2-a]pyridin-6-yl)-2,4-difluorobenzamide] yielded a half-maximal inhibitory concentration (IC50) of 0.34 µM.

Consider `CCOc1cc2nc(C3CC3)cn2cc1NC(=O)c1cccn(CC(F)(F)F)c1=O` [Example 70, N-(2-cyclopropyl-7-ethoxyimidazo[1,2-a]pyridin-6-yl)-2-oxo-1-(2,2,2-trifluoroethyl)-1,2-dihydropyridine-3-carboxamide], for which, at IRAK4 [1], the IC50 was 0.15 µM.

On IRAK4 [1], `CCOc1cc2nc(CC)cn2cc1NC(=O)c1cccc(NC(C)=O)n1` [Example 32, 6-acetamido-N-(7-ethoxy-2-ethylimidazo[1,2-a]pyridin-6-yl)picolinamide] returned a 50% inhibitory concentration (IC50) of 0.064 µM. `CCOc1cc2nc(CC)cn2cc1NC(=O)c1ccc2c(c1)CCOC2` [Example 47, N-(7-ethoxy-2-ethylimidazo[1,2-a]pyridin-6-yl)isochromane-6-carboxamide] registered an IC50 against IRAK4 [1] of 1.1 µM. On the same count and under the same terms, in the case of `COc1cc(NC(=O)c2cccc(C(F)F)n2)cn2cc(C34COC(C)(C3)C4)nc12` [Example 508, 6-(difluoromethyl)-N-(8-methoxy-2-(1-methyl-2-oxabicyclo[2.1.1]hexan-4-yl)imidazo[1,2-a]pyridin-6-yl)picolinamide 2,2,2-trifluoroacetate] it was 0.002 µM; in that of `COc1cc(NC(=O)c2cccc(C(F)F)n2)cn2cc(C3CC3(F)F)nc12` (single isomer, unassigned) [Example 514, N-(2-(2,2-difluorocyclopropyl)-8-methoxyimidazo[1,2-a]pyridin-6-yl)-6-(difluoromethyl)picolinamide], 0.016 µM. The same measure, in the same setting: in the case of `O=C(Nc1cc(Br)c2nc(C3CCOCC3)cn2c1)c1cccc(C(F)(F)F)n1` [Example 106, N-(8-bromo-2-(tetrahydro-2H-pyran-4-yl)imidazo[1,2-a]pyridin-6-yl)-6-(trifluoromethyl)picolinamide] it was 0.027 µM; in that of `CCOc1cc2nc(CC3CCOC3)cn2cc1NC(=O)c1coc(-c2cnn(C)c2)n1` (single isomer, unassigned) [Example 251, N-(7-ethoxy-2-((tetrahydrofuran-3-yl)methyl)imidazo[1,2-a]pyridin-6-yl)-2-(1-methyl-1H-pyrazol-4-yl)oxazole-4-carboxamide], 0.002 µM; in that of `CCOc1cc2nc(C3CC3)cn2cc1NC(=O)c1cccnc1OCC(F)(F)F` [Example 71, N-(2-cyclopropyl-7-ethoxyimidazo[1,2-a]pyridin-6-yl)-2-(2,2,2-trifluoroethoxy)nicotinamide], 0.66 µM. The same measure, in the same setting: in the case of `CCOc1cc2nc(CC)cn2cc1NC(=O)c1ccc2c(c1)OCC2` [Example 42, N-(7-ethoxy-2-ethylimidazo[1,2-a]pyridin-6-yl)-2,3-dihydrobenzofuran-6-carboxamide] it was 1.3 µM; in that of `COc1nc(NC(=O)c2cccc(C(F)F)n2)cn2cc(C3CCOCC3)nc12` [Example 450, 6-(difluoromethyl)-N-(8-methoxy-2-(tetrahydro-2H-pyran-4-yl)imidazo[1,2-a]pyrazin-6-yl)picolinamide], 0.003 µM; in that of `C[C@H](COc1cc2nc(C3CC3)cn2cc1NC(=O)c1cccc(C(F)F)n1)n1ccccc1=O` (single isomer, unassigned) [Example 7], 0.28 µM.

Turning to `CCOc1cc2nc(C3CC3)cn2cc1NC(=O)c1cccc(OC(F)(F)F)n1` [Example 118, N-(2-cyclopropyl-7-ethoxyimidazo[1,2-a]pyridin-6-yl)-6-(trifluoromethoxy)picolinamide], on IRAK4 [1], 0.063 µM corresponded to half-maximal inhibition (IC50). This IC50 lies about 4.4-fold lower than the previous one.
